Test results reported in patent US9539260B2, “Dihydro-benzo-oxazine and dihydro-pyrido-oxazine derivatives” (Novartis AG, priority 2012, dated 2017).

Experiments:
PI3K delta = PI3K delta (Homo sapiens (Human), UniProt O00329); test: Enzymatic PI3K delta isoform inhibition (lipid kinase activity, Kinase-Glo luminescence); format: biochemical; details: Enzymatic assay
Procedure, shortened: (§1)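 IC50s derive from 4-parameter logistic fits of % inhibition across 8 concentrations (usually 10 to 0.003 μM). Lipid kinase reaction: PI3K (10 nM) plus phosphatidylinositol (5 μg/mL) started with 2 μM ATP, stopped near 50% ATP depletion; leftover ATP quantified by Kinase-Glo luminescence.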

PI3K alpha = PI3K alpha (Homo sapiens (Human), UniProt P42336); test: Enzymatic PI3K alpha isoform inhibition (lipid kinase activity, Kinase-Glo luminescence); format: biochemical; details: Enzymatic assay
Procedure, shortened: as §1

Sequence of PI3K delta (O00329 other isoform, or with tags, fused parts or gaps linker GGGGGG): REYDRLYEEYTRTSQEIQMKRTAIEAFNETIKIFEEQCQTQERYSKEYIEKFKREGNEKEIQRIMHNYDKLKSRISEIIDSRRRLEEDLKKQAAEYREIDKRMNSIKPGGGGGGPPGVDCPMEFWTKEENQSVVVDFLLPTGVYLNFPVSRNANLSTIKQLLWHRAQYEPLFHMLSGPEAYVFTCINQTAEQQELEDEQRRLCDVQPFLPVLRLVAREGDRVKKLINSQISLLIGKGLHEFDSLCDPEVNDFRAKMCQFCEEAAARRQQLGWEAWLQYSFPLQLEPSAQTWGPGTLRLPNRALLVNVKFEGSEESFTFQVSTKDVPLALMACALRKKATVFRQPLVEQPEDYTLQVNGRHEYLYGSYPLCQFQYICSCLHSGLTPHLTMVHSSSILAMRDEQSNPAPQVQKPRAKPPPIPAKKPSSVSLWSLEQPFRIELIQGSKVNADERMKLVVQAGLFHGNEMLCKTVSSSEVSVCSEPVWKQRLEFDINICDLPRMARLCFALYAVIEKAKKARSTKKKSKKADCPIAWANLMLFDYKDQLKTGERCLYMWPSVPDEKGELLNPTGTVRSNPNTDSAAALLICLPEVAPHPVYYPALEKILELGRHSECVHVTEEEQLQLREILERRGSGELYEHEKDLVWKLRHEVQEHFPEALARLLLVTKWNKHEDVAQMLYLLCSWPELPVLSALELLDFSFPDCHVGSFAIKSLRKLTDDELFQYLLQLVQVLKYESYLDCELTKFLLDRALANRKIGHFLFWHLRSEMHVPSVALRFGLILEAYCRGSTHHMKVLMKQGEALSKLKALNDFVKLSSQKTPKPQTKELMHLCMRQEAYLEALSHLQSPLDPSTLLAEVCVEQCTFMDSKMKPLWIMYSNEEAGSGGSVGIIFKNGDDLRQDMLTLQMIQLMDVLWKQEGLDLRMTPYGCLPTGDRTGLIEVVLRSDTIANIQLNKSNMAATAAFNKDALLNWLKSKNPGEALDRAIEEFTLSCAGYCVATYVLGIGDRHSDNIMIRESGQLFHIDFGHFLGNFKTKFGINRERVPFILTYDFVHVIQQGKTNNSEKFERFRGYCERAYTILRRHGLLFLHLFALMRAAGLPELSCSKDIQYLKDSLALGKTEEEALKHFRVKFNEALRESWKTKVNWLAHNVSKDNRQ
Sequence of PI3K alpha (P42336 other isoform, or with tags, fused parts or gaps): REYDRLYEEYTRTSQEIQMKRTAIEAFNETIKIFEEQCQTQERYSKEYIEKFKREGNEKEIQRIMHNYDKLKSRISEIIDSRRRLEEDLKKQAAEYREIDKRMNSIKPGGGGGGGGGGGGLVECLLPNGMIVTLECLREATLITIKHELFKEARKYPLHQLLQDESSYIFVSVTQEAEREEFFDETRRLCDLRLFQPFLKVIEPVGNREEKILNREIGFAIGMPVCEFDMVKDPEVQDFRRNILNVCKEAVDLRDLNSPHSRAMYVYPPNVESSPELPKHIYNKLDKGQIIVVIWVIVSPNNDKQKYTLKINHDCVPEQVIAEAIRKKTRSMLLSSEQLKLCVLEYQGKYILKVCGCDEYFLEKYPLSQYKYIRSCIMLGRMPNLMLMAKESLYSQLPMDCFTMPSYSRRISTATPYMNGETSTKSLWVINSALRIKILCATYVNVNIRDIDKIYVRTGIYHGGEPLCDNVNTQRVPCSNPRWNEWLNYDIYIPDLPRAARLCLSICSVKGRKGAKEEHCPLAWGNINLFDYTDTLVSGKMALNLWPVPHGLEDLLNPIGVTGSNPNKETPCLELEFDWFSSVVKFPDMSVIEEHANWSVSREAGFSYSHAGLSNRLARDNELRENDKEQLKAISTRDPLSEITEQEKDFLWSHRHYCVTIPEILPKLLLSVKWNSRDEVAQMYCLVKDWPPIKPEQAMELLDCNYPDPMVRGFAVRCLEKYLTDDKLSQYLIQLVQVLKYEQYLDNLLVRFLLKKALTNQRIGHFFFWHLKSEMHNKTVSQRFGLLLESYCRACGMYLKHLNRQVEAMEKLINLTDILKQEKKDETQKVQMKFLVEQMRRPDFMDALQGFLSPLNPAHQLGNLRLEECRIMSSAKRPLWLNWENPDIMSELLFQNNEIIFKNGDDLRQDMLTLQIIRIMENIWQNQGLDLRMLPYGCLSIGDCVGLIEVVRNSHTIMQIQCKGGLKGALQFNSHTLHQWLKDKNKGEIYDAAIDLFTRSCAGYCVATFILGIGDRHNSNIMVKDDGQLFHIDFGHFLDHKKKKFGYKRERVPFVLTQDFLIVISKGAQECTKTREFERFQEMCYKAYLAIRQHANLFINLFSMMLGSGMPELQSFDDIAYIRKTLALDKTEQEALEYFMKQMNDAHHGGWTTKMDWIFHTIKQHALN

Row | Structure (SMILES) | IC50 (PI3K delta) [nM] | IC50 (PI3K alpha) [nM]
1 | Cc1cc(N2CCOc3ccc(O[C@H]4CCN(C(=O)C5CCOCC5)C4)c(C)c32)cnc1S(C)(=O)=O [W, {(S)-3-[4-(6-Methanesulfonyl-5-methyl-pyridin-3-yl)-5-methyl-3,4-dihydro-2H-benzo[1,4]oxazin-6-yloxy]-pyrrolidin-1-yl}-(tetrahydro-pyran-4-yl)-methanone] | 56 | 2980
2 | COc1cc(N2CCOc3ccc(O[C@H]4CCN(C(=O)C5CCCOC5)C4)cc32)cnc1OC (stereo partly drawn) [Example B43, {(S)-3-[4-(5,6-Dimethoxy-pyridin-3-yl)-3,4-dihydro-2H-benzo[1,4]oxazin-6-yloxy]-pyrrolidin-1-yl}-(tetrahydro-pyran-3-yl)-methanone] | 57 | 514
3 | Cc1cnccc1C(=O)N1CC[C@H](Oc2ccc3c(c2)N(c2cnc(S(C)(=O)=O)c(C)c2)CCO3)C1 [Example B67, {(S)-3-[4-(6-Methanesulfonyl-5-methyl-pyridin-3-yl)-3,4-dihydro-2H-benzo[1,4]oxazin-6-yloxy]-pyrrolidin-1-yl}-(3-methyl-pyridin-4-yl)-methanone] | 25 | 804
4 | COCC(=O)N1CC[C@H](Oc2ccc3c(c2)N(c2cnc(OC)c(OC)c2)CCO3)C1 [Example B44, 1-{(S)-3-[4-(5,6-Dimethoxy-pyridin-3-yl)-3,4-dihydro-2H-benzo[1,4]oxazin-6-yloxy]-pyrrolidin-1-yl}-2-methoxy-ethanone] | 22 | 71
5 | COc1ncc(N2CCOc3ccc(O[C@H]4CCN(C(=O)c5cn(C)cn5)C4)cc32)cc1NS(C)(=O)=O [U, N-(2-Methoxy-5-{6-[(S)-1-(1-methyl-1H-imidazole-4-carbonyl)-pyrrolidin-3-yloxy]-2,3-dihydro-benzo[1,4]oxazin-4-yl}-pyridin-3-yl)-methanesulfonamide] | 15 | 192
6 | Cc1cc(N2CCOc3ccc(O[C@H]4CCN(C(=O)CCO)C4)cc32)cnc1Cl [Example B61, 1-{(S)-3-[4-(6-Chloro-5-methyl-pyridin-3-yl)-3,4-dihydro-2H-benzo[1,4]oxazin-6-yloxy]-pyrrolidin-1-yl}-3-hydroxy-propan-1-one] | 37 | 732
7 | COc1ncc(N2CCOc3ccc(O[C@H]4CCN(C(=O)C5CCS(=O)(=O)C5)C4)cc32)cc1C (single isomer, unassigned) [Example B28, (1,1-Dioxo-tetrahydro-1lambda*6*-thiophen-3-yl)-{(S)-3-[4-(6-methoxy-5-methyl-pyridin-3-yl)-3,4-dihydro-2H-benzo[1,4]oxazin-6-yloxy]-pyrrolidin-1-yl}-methanone] | 12 | 788
8 | CCC(=O)N1CC[C@H](Oc2ccc3c(c2)N(c2ccc(C)c(S(=O)(=O)N4CCCCC4)c2)CCO3)C1 [Example A24, 1-((S)-3-{4-[4-Methyl-3-(piperidine-1-sulfonyl)-phenyl]-3,4-dihydro-2H-benzo[1,4]oxazin-6-yloxy}-pyrrolidin-1-yl)-propan-1-one] | 317 | 6880
9 | Cc1cc(N2CCOc3ccc(O[C@H]4CCN(C(=O)c5ccccc5)C4)cc32)cnc1S(C)(=O)=O [Example B34, {(S)-3-[4-(6-Methanesulfonyl-5-methyl-pyridin-3-yl)-3,4-dihydro-2H-benzo[1,4]oxazin-6-yloxy]-pyrrolidin-1-yl}-phenyl-methanone] | 46 | 795
10 | COc1ncc(N2CCOc3ccc(O[C@H]4CCN(C(=O)c5ccc(=O)[nH]c5)C4)cc32)cc1C [Example B92, 5-{(S)-3-[4-(6-Methoxy-5-methyl-pyridin-3-yl)-3,4-dihydro-2H-benzo[1,4]oxazin-6-yloxy]-pyrrolidine-1-carbonyl}-1H-pyridin-2-one] | 8 | 346
11 | COc1ncc(N2CCOc3ccc(O[C@H]4CCN(C(=O)[C@@H]5CCN(C(C)=O)C5)C4)cc32)cc1C [Example B122, 1-((R)-3-{(S)-3-[4-(6-Methoxy-5-methyl-pyridin-3-yl)-3,4-dihydro-2H-benzo[1,4]oxazin-6-yloxy]-pyrrolidine-1-carbonyl}-pyrrolidin-1-yl)-ethanone] | 24 | 425
12 | Cc1cc(N2CCOc3ccc(O[C@H]4CCN(c5ccccn5)C4)cc32)cnc1S(C)(=O)=O [M, 4-(6-Methanesulfonyl-5-methyl-pyridin-3-yl)-6-((S)-1-pyridin-2-yl-pyrrolidin-3-yloxy)-3,4-dihydro-2H-benzo[1,4]oxazine] | 6 | 304
13 | COc1ncc(N2CCOc3ccc(O[C@H]4CCN(C(=O)C5CCS(=O)(=O)CC5)C4)c(C)c32)cc1C [V, (1,1-Dioxo-hexahydro-1lambda*6*-thiopyran-4-yl)-{(S)-3-[4-(6-methoxy-5-methyl-pyridin-3-yl)-5-methyl-3,4-dihydro-2H-benzo[1,4]oxazin-6-yloxy]-pyrrolidin-1-yl}-methanone] | 79 | 3200
14 | Cc1cc(N2CCOc3ccc(O[C@H]4CCN(C(=O)c5cnco5)C4)cc32)cnc1S(C)(=O)=O [Example B25, {(S)-3-[4-(6-Methanesulfonyl-5-methyl-pyridin-3-yl)-3,4-dihydro-2H-benzo[1,4]oxazin-6-yloxy]-pyrrolidin-1-yl}-oxazol-5-yl-methanone] | 40 | 665
15 | Cc1cc(N2CCOc3ccc(O[C@H]4CCN(C(=O)[C@H]5CC[C@@H](O)CC5)C4)cc32)cnc1S(C)(=O)=O [Example B51, (4-Hydroxy-cyclohexyl)-{(S)-3-[4-(6-methanesulfonyl-5-methyl-pyridin-3-yl)-3,4-dihydro-2H-benzo[1,4]oxazin-6-yloxy]-pyrrolidin-1-yl}-methanone] | 10 | 1030
16 | COc1cc(N2CCOc3ccc(O[C@H]4CCN(C(=O)C5CCOCC5)C4)cc32)ccn1 [Example A22, {(S)-3-[4-(2-Methoxy-pyridin-4-yl)-3,4-dihydro-2H-benzo[1,4]oxazin-6-yloxy]-pyrrolidin-1-yl}-(tetrahydro-pyran-4-yl)-methanone] | 21 | 757
17 | COc1ncc(N2CCOc3ccc(O[C@H]4CCN(C(=O)[C@H]5CC[C@@H](O)CC5)C4)cc32)cc1F [Example B118, {(S)-3-[4-(5-Fluoro-6-methoxy-pyridin-3-yl)-3,4-dihydro-2H-benzo[1,4]oxazin-6-yloxy]-pyrrolidin-1-yl}-(4-hydroxy-cyclohexyl)-methanone] | 10 | 498
18 | CCC(=O)N1CC[C@H](Oc2ccc3c(c2)N(c2ccc(OC)c(S(=O)(=O)N(C)OC)c2)CCO3)C1 [Example A29, 2,N-Dimethoxy-N-methyl-5-[6-((S)-1-propionyl-pyrrolidin-3-yloxy)-2,3-dihydro-benzo[1,4]oxazin-4-yl]-benzenesulfonamide] | 42 | 2730

Results, then the compound that gave them:

Row | IC50 (PI3K delta) [nM] | IC50 (PI3K alpha) [nM] | Structure (SMILES)
19 | 56 | 372 | COc1ncc(N2CCOc3cnc(O[C@H]4CCN(C(=O)c5ncn(C)c5N)C4)cc32)cc1C(F)(F)F [Example G3, (5-Amino-1-methyl-1H-imidazol-4-yl)-{(S)-3-[1-(6-methoxy-5-trifluoromethyl-pyridin-3-yl)-2,3-dihydro-1H-pyrido[3,4-b][1,4]oxazin-7-yloxy]-pyrrolidin-1-yl}-methanone]
20 | 214 | 2530 | CCC(=O)N1C[C@@H](Oc2ccc3c(c2)N(c2cnc(OC)c(C#N)c2)CCO3)CO1 [Example D23, 2-Methoxy-5-[6-((R)-2-propionyl-isoxazolidin-4-yloxy)-2,3-dihydro-benzo[1,4]oxazin-4-yl]-nicotinonitrile]
21 | 24 | 1020 | COc1ncc(N2CCOc3ccc(O[C@H]4CON(C(=O)C5CCOCC5)C4)cc32)cc1C#N [Example D22, 2-Methoxy-5-{6-[(R)-2-(tetrahydro-pyran-4-carbonyl)-isoxazolidin-4-yloxy]-2,3-dihydro-benzo[1,4]oxazin-4-yl}-nicotinonitrile]
22 | 1210 | 3380 | CCC(=O)N1CC[C@@H](Oc2ccc3c(c2)N(c2ccc(OC)nc2)CCO3)C1 [Example C3, 1-{(R)-3-[4-(6-Methoxy-pyridin-3-yl)-3,4-dihydro-2H-benzo[1,4]oxazin-6-yloxy]-pyrrolidin-1-yl}-propan-1-one]
23 | 8 | 299 | COc1ncc(N2CCOc3ccc(O[C@H]4CCN(C(=O)C5CCS(=O)(=O)C5)C4)cc32)cc1F (single isomer, unassigned) [Example H11]
24 | 11 | 848 | Cc1cc(N2CCOc3ccc(O[C@H]4CCN(C(=O)C5COCCO5)C4)cc32)cnc1S(C)(=O)=O (single isomer, unassigned) [Example H4]
25 | 2690 | > 9100 | CCC(=O)N1C[C@H](Oc2ccc3c(c2)N(c2cnc(OC)c(C#N)c2)CCO3)CO1 [Example D25, 2-Methoxy-5-[6-((S)-2-propionyl-isoxazolidin-4-yloxy)-2,3-dihydro-benzo[1,4]oxazin-4-yl]-nicotinonitrile]
26 | 25 | 444 | COc1ncc(N2CCOc3cnc(O[C@H]4CCN(C(=O)c5cn(C)cn5)C4)cc32)cc1C#N [Example F5, 2-Methoxy-5-{7-[(S)-1-(1-methyl-1H-imidazole-4-carbonyl)-pyrrolidin-3-yloxy]-2,3-dihydro-pyrido[3,4-b][1,4]oxazin-1-yl}-nicotinonitrile]
27 | 5 | 38 | COc1ncc(N2CCOc3cnc(O[C@H]4CCN(C(=O)C5CCOCC5)C4)cc32)cc1C(F)F [Example F8, {(S)-3-[1-(5-Difluoromethyl-6-methoxy-pyridin-3-yl)-2,3-dihydro-1H-pyrido[3,4-b][1,4]oxazin-7-yloxy]-pyrrolidin-1-yl}-(tetrahydro-pyran-4-yl)-methanone]
28 | 243 | 1220 | COc1ncc(N2CCOc3ccc(O[C@@H]4CCN(C(=O)C5CCOCC5)C4)cc32)cc1C#N [Example C2, 2-Methoxy-5-{6-[(R)-1-(tetrahydro-pyran-4-carbonyl)-pyrrolidin-3-yloxy]-2,3-dihydro-benzo[1,4]oxazin-4-yl}-nicotinonitrile]
